{"source": "patent US9409922B2", "about": "“Imidazopyridine macrocycles as inhibitors of human immunodeficiency virus replication” (priority 2014, dated 2016)", "tested_on": "NL-RLuc virus", "assay": "Inhibition of HIV replication: NL-RLuc reporter virus in MT-2 cells, luciferase readout", "assay_type": "cell-based", "settings": "Human immunodeficiency virus 1, MT2, 120 h, MT-2 cells infected with NL-RLuc virus, 5 days of incubation, 10% FBS, at least 2 experiments", "in_short": "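Renilla luciferase reporter virus (NL4-3 nef replaced), produced in 293T cells, infected MT-2 cells with serial compound dilutions for 5 days in RPMI 1640 with 10% FBS, 10 mM HEPES pH 7.55. Luciferase measured; EC50 from median effect equation, at least 2 experiments.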"}
{"compound": "Cc1c([C@H](OC(C)(C)C)C(=O)O)c2n3cc(nc3c1Cl)-c1cccc(c1)-c1cc(F)ccc1O[C@@H](C)CCCCOC1(C)CCN2CC1", "note": "[Example 61, (2S)-2-(tert-Butoxy)-2-[(22S)-5-chloro-17-fluoro-4,22,28-trimethyl-21,27-dioxa-1,7,34-triazahexacyclo[26.2.2.1^6,^9.1^10,^14.0^2,^7.0^15,^20]tetratriaconta-2,4,6(34),8,10(33),11,13,15(20),16,18-decaen-3-yl]acetic acid]", "values": [{"measurement": "EC50", "result": 15, "unit": "nM"}]}
{"compound": "Cc1c([C@H](OC(C)(C)C)C(=O)O)c2n3cc(nc3c1C(F)F)-c1cccc(c1)-c1cc(F)ccc1O[C@@H](C)CCCCOC1(C)CCN2CC1", "note": "[Example 63, (2S)-2-(tert-Butoxy)-2-[(22S)-5-(difluoromethyl)-17-fluoro-4,22,28-trimethyl-21,27-dioxa-1,7,34-triazahexacyclo[26.2.2.1^6,^9.1^10,^14.0^2,^7.0^15,^20]tetratriaconta-2,4,6(34),8,10(33),11,13,15(20),16,18-decaen-3-yl]acetic acid]", "values": [{"measurement": "EC50", "result": 18, "unit": "nM"}]}
{"compound": "CC(=O)c1c(C)c([C@H](OC(C)(C)C)C(=O)O)c2n3cc(nc13)-c1cccc(c1)-c1cc(F)ccc1O[C@@H](C)CCCCOC1(C)CCN2CC1", "note": "[Example 64, (2S)-2-[(22S)-5-Acetyl-17-fluoro-4,22,28-trimethyl-21,27-dioxa-1,7,34-triazahexacyclo[26.2.2.1^6,^9.1^10,^14.0^2,^7.0^15,^20]tetratriaconta-2,4,6(34),8,10(33),11,13,15(20),16,18-decaen-3-yl]-2-(tert-butoxy)acetic acid]", "values": [{"measurement": "EC50", "result": 6, "unit": "nM"}]}
{"compound": "Cc1c([C@H](OC(C)(C)C)C(=O)O)c2n3cc(nc3c1C(C)(C)O)-c1cccc(c1)-c1cc(F)ccc1O[C@@H](C)CCCCOC1(C)CCN2CC1", "note": "[Example 65, (2S)-2-(tert-Butoxy)-2-[(22S)-17-fluoro-5-(2-hydroxypropan-2-yl)-4,22,28-trimethyl-21,27-dioxa-1,7,34-triazahexacyclo[26.2.2.1^6,^9.1^10,^14.0^2,^7.0^15,^20]tetratriaconta-2,4,6(34),8,10(33),11,13,15(20),16,18-decaen-3-yl]acetic acid]", "values": [{"measurement": "EC50", "result": 6, "unit": "nM"}]}
